{
  "source": "patent US20230212571A1",
  "about": "“COMPOSITIONS AND METHODS FOR DELIVERING POLYNUCLEOTIDES” (NeOnc Technologies, Inc., priority 2020, published 2023)",
  "system": "AVM-BEC",
  "type": "cell-based",
  "experimental": "The apoptotic and necrotic cell death was measured by flow cytometry using PI/Annexin V-Alexa Fluor 488 (ThermoFisher Scientific), following the manufacturer's instructions. After 24 h-treatments, cells were harvested, washed with cold PBS, and suspended in Annexin Binding Buffer (ThermoFisher Scientific) at a concentration of 1×10^6 cells/mL. Following addition of Annexin V and PI, cells were incubated at room temperature for 15 min in the ? dark, and additional 400 μL of 1× binding buffer was added to each sample. Positive controls of cell death were obtained treating cells with 50% ethanol. Ten thousand cells/sample were analyzed using a BD LSRII flow cytometer with the proper compensation controls and the FlowJo_V10 analysis software.\nCells were collected and analyzed for apoptosis, while supernatants were collected and analyzed for necrosis (Cell Death Detection ELISA^PLUS), and for PAI-1, VEGF (Quantikine ELISA Kit, R&D Systems) and TGF-β (Proteintech) protein content, following the manufacturers' instructions. Absorbance was measured using a Fluostar Omega microplate reader (BMG Labtech). Data were normalized to kit controls and number of producing cells.",
  "data": [
    {"substance": "hsa-miR-18a-5p (UAGGUGCAUCUAGUGCAGAUAG; chemistry not given here; listed as Homo sapiens) [small non-coding RNA molecule involved in post-transcriptional regulation of gene expression; Dharmacon]", "values": [
      {"measurement": "cell death (apoptosis, necrosis)", "result": "does not increase cell death"}
    ]}
  ]
}
